Among the data in a melting point compilation (Tetko et al.; mined from patent text by program, amines drawn as free bases though some values may be those of a salt) are melting point values, retold here.

By melting point is commonly meant the temperature, or range, at which the solid turns liquid.

Each structure is given as a SMILES string.

On to `COC(=O)c1cn2c3c(c(F)c(F)cc3c1=O)CC(C)N2C` (stereo not given), for which the melting point is 184 to 185 °C.
For `Cc1nc2cccc3n(CCCCCCNS(=O)(=O)CC(F)(F)F)c(=O)c1n23`, the melting point was in the range of 141 to 143 °C.
As to `CNC(=S)NCC1=C(n2ccccc2=O)c2cc([N+](=O)[O-])ccc2OC1(C)C`, the melting point worked out at 225 °C.
In turn, `COc1cc(C2CCCO2)cc(OC)c1OC` (stereo not given) showed a melting point of 102 to 104 °C.
Turning to `O=C(CCCCCCCCC(=O)OC1CCN(O)CC1)OC1CCN(O)CC1`, the melting point lay in the range of 133 to 135 °C.
`N#Cc1c(Cl)ccnc1Cl` displayed a melting point of 107 to 109 °C.
In the case of `CC1(c2ccccc2)CN(c2ccnc(N)c2)C(=O)O1` (stereo not given), the melting point lay in the range of 140 to 141 °C.
As for `FC(F)(F)c1cccc(-c2ccnc(S)n2)c1`, the melting point lay in the range of 200 to 205 °C.
Take `CCCNC(=O)Nc1cc(-c2c(-c3ccc(F)cc3)nc3cccnn23)ccn1`: the melting point lay in the range of 219 to 220 °C.
In turn, `COc1ccc(-n2c(C)cc(=O)[nH]c2=S)cc1` gave a melting point of 248 to 249 °C.
On to `O=C(Nc1cccnc1)N1CCN(c2cc(-c3ccccc3F)ncn2)CC1`, for which the melting point lay in the range of 178 to 179 °C.
For the molecule `O=C(O)C(CC1CCCC1)c1ccc(C#Cc2ccccn2)cc1` (stereo not given), the melting point lay within 143 to 147 °C.
As for `Cc1nc2ccccc2n1-c1ccc(C(=O)O)cc1`, the melting point was 299 to 300 °C.
Molecule `COCCNS(=O)(=O)c1cccc(Nc2nccc(-c3sc(C)nc3C)n2)c1` yielded a melting point of 197 to 198 °C.
In turn, `CNC(=S)NN=C(CCCCl)c1ccccc1` had a melting point of 94 to 96 °C.
For `Cc1c(Cl)cc(C2=NNC(=O)C(S)C2)cc1Cl` (stereo not given) the value was 184 to 187 °C; for `Cc1cc(=O)n(C)c2cc(OCCCN3CCC(NC(=O)c4ccccc4)CC3)ccc12`, 193 to 195 °C; for `CCN(CC)C(=O)c1cc(-c2ccccc2)ccc1OC`, 85 to 87 °C.
`COc1ccc2ccc(C(=O)NC(C)C)c(OC(C)C)c2c1` gave a melting point of 62 to 64 °C.
For `Cc1cccc(CCC(O)(P(=O)(O)O)P(=O)(O)O)c1N` the value was 133 °C; for `Cc1nn2ccccc2c1C(=O)C1=CN(C(=O)Nc2ccc(Cl)cc2)CCC1`, 198 to 200 °C; for `C=C(CO)C[C@](C)(O)[C@H]1CC[C@H]2[C@@H](O[Si](C)(C)C(C)(C)C)CCC[C@@]21C`, 95 °C.
As to `COC(=O)C1CC(C#N)(c2ccc(OC)c3c2OCCO3)CCC1=O` (stereo not given), the melting point was in the range of 129 to 132 °C.
For `CC(C)(C)OC(=O)N1C(=O)C2(COc3cc4c(cc32)OCCO4)c2ccccc21` (stereo not given), the melting point fell in the range of 171 to 172 °C.
For `O=C1NCN(c2ccccc2)C12CCN(CC1CCc3ccccc3O1)CC2` (stereo not given) the value was 192 to 194 °C; for `CC(=O)N1c2ccc([N+](=O)[O-])cc2CC1C(C)(C)C` (stereo not given), 99 °C.
For `O=C(Nc1cccc(S(=O)(=O)NCc2cccnc2)c1)c1cnn2c(C(F)(F)F)cc(-c3ccc(C(F)(F)F)cc3)nc12` the value was 257 °C.
For `c1ccc(N2c3ccccc3CC2C2=NCCN2)cc1` (stereo not given) the value was 141 to 144 °C.
Molecule `CC(c1oc2ccccc2c(=O)c1-c1cccc(F)c1)n1nc(-c2ccc(N(C)C)cc2)c2c(N)ncnc21` (stereo not given) displayed a melting point of 214 to 217 °C.
As for `N#Cc1cccc(C(=O)Cc2ccnnc2)c1`, the melting point fell in the range of 142 to 144 °C.
`CNc1cc(NS(=O)(=O)c2cccc(C(F)(F)F)c2)nc(NC)n1` registered a melting point of 234 to 235 °C.
Molecule `COC(=O)c1nsnc1Br` yielded a melting point of 57 to 58 °C.
Molecule `CCN1c2ccccc2Sc2cc(C=O)ccc21` had a melting point of 94 to 95 °C.
In the case of `COC(=O)COc1cc(C)ccc1C=O`, the melting point lay in the range of 63 to 64 °C.
`CCOc1ccc(-c2c(Cl)c(CCl)nc3sc4c(c23)CCN(C(=O)OCc2ccccc2)C4)cc1` yielded a melting point of 159 to 161 °C.
As for `O=C(Nc1ccc(Oc2ccc(N3CCC(O)CC3)cc2)cc1)c1ccc(Cl)c(Cl)c1`, the melting point lay within 178 to 180 °C.
Molecule `Nc1ccc(Oc2ccc(Oc3ccc(Oc4ccc(Oc5ccc(N)cc5)cc4)cc3)cc2)cc1` showed a melting point of 170 °C.
`CC(=O)OC1CSC(Oc2cccc(-c3cc(C)ccn3)c2)C(OC(C)=O)C1OC(C)=O` (stereo not given) gave a melting point of 116 °C.
As for `CCN(C)c1nc2ccccc2n2cnc(-c3nc(C4CC4)no3)c12`, the melting point lay within 96 to 97 °C.
`CCCC(=O)c1cnc2c(C(O)CN(C)C)cccc2c1Nc1ccccc1C` (stereo not given) came in with a melting point of 95 to 96 °C.
With `OC/C(=C(\CO)c1ccccc1)c1ccccc1`, the melting point was determined as 79 °C.
Molecule `CCCCCCS(=O)(=O)NC(=O)CCc1cc(OC(C)C)nn1Cc1ccc(Cl)cc1Cl` showed a melting point of 103 to 106 °C.
For `O=C(O)Cc1ccc(OCCNCC(O)c2ccccc2)cc1` (stereo not given), the melting point lay in the range of 183 to 184 °C.
As for `CC(=O)OCC1OC(n2c(Cl)nc3c(Br)c(Br)ccc32)C(OC(C)=O)C1OC(C)=O` (stereo not given), the melting point was in the range of 129 to 130 °C.
The molecule `O=C(Nc1cccc2c1C(=O)N(C1CCN(c3ccncc3)CC1)C2=O)c1ccc(Cl)s1` returned a melting point of 214 °C.
For `Nc1cc(Cl)c(Cl)cc1I` the value was 79.5 to 80.5 °C; for `O=C(OCc1ccccc1)c1n[nH]c2c(=O)[nH]c3cc(Cl)ccc3c(=O)c12`, 254 °C.
Molecule `COc1cc(CN2C(=O)CCC2=O)cc(OC)c1-c1ccc(C[C@H](NC(=O)c2c(Cl)cccc2Cl)C(=O)O)cc1` displayed a melting point of 137 °C.
In turn, `C=C(C)C(=O)N(SC1CCCCC1)c1ccccc1` yielded a melting point of 56 to 56.5 °C.
The molecule `COc1ccc([C@H](Cc2ccncc2)c2ccccc2)cc1O` displayed a melting point of 158 to 159 °C.
`COc1c(Br)cc(Br)c(OC)c1C(=O)O` displayed a melting point of 108 to 110 °C.
`O=S1(=O)c2cccc3cccc(c23)N1CCN1CCC(Cc2c[nH]c3ccc(F)cc23)CC1` returned a melting point of 161 °C.
For `CCc1noc(-c2cc3c(cn2)[nH]c2cccc(Oc4ccc(Cl)cn4)c23)n1` the value was 259 to 260 °C.
For the molecule `Clc1cc2nc(Br)c(Br)nc2cc1Cl`, the melting point fell in the range of 169 to 170 °C.
In turn, `O=C(O)c1ccccc1COC1CCn2c(CCc3ccccc3)nc3cccc1c32` (stereo not given) came in with a melting point of 154 to 155 °C.
For `O=C(Nc1ccc(C(=O)N2Cc3ccccc3Cc3ccccc32)cc1)c1cccc(Cl)c1Cl` the value was 225 to 230 °C.
As for `Nc1cc(Cl)cc(Cl)c1C(=O)NCc1cccc(Br)c1`, the melting point was 157 to 159 °C.
Take `OC(CCc1ccccc1)C(O)CCc1ccccc1` (stereo not given): the melting point lay in the range of 128 to 129 °C.
Regarding `Nc1ccc2ncc(Br)cc2n1`, the melting point lay within 168 to 169 °C.
As for `COc1ccccc1-c1nc(CC(=O)O)cs1`, the melting point was in the range of 104 to 105 °C.
`COc1ccc2c(c1)C(=NNc1ccc(S(N)(=O)=O)cc1)C(=O)N2`: the melting point is more than 250 °C.
`CCOC(=O)c1cnn(C)c1C(=O)Nc1ccc2nc(N(C)C)nn2c1` yielded a melting point of 194 °C.
For `O=C(O)CCCN1C(=O)C(c2ccccc2)SC1=S` (stereo not given) the value was 138 to 139 °C; for `COC(=O)/C(=N\OC1(C(=O)O)CCC1)c1ccco1`, 133 to 134 °C; for `CC(C)CCOc1c(-c2ccc(S(N)(=O)=O)cc2)cnn(C(C)(C)C)c1=O`, 153 to 155 °C.
